Results reported in patent US20190343780A1, “LOW DOSE DRUG COMBINATIONS FOR USE IN PREVENTING AND TREATING NEURONAL DAMAGE” (priority 2016, published 2019).
Where two headings read alike, the source gives them in different places.

Key:
[1] = system: mice with asphyctic hypoxia; assay: Asphyctic hypoxia in mice (sealed 100 cm^3 glass chamber), treatment I.P.; format: in vivo; conditions: for ED50: Mus musculus, ip, Dose increasing the life of mice by 50%, combination: memantine dose, read-out: Asphyctic hypoxia (ED50), mg/kg, I.P. admin.
Procedure: (§1) Rats were intra-muscularly (I.M.) administered with 80 mg/kg sodium nitrite to achieve hemic hypoxia (Serdiuk et al., Eksp. Klin. Farmakol., 2000, Vol. 63(6), pages 3-8). Mice were caged in a 100 cm^3 sealed glass chamber to achieve asphyctic hypoxia, which simulates cerebral ischemia (Serdiuk et al., Eksp. Klin. Farmakol., 2000, Vol. 63(6), pages 3-8; Khalili et al., Eur. Rev. Med. Pharmacol. Sci., 2015, Vol. 19(17), pages 3282-3285).
(§2) Rats and mice were treated as in Example 1.

[2] = system: mice, toxic stimulation of NMDA receptors of brain
Procedure: Mice were I.P. administered with 250 mg/kg N-Methyl-D-aspartic acid (NMDA), a neurotoxin causing clonic-tonic seizure and death in 100% of animals by toxic stimulating of NMDA receptors of brain (Leander et al., Brain Res., 1988, Vol. 448 (1), pages 115-120). Rats were I.M. administered with 12 mg/kg Kainic acid to achieve chronic kainate degeneration of the brain by stimulation of AMPA/kainate receptors (Serdyuk et al., Bull. Exp. Biol. Med., 2014, Vol. 157(1), pages 15-17). Chronic kainate degeneration leads to chronic kainate lethality, neurologic disturbances and large weight loss (Serdyuk et al., Bull. Exp. Biol. Med., 2014, Vol. 157(1), pages 15-17).
Animals were then treated with deionized water (control), memantine, epinephrine or combinations of memantine and epinephrine, which were I.P. or I.M administered, as indicated.
Rats were treated as in Example 3.

[3] = system: rats with hemic hypoxia (sodium nitrite); assay: Hemic hypoxia in rats (sodium nitrite 80 mg/kg I.M.), treatment I.M.; format: in vivo, rat; conditions: for ED50: Rattus norvegicus, im; for ED50 / Dose with significant anti-hypoxic effect: combination: memantine dose; for Dose with significant anti-hypoxic effect: text summary of Table 1 (hemic and asphyctic hypoxia)
Procedure: as §1, §2

[4] = system: rats with chronic kainate degeneration of the brain (AMPA/kainate receptors); assay: Chronic kainate degeneration in rats (kainic acid 12 mg/kg I.M.), treatment I.M.; format: in vivo, rat; conditions: for Chronic Kainate lethality in rats (%) / Rats with heavy neurologic disturbances (%) / Rats with large weight loss (%): I.M.; for Chronic Kainate lethality in rats (%): 2 weeks after kainate; for Rats with heavy neurologic disturbances (%): score 3 to 5 points; for Dose with significant neuroprotective effect: text summary of Table 3 (NMDA lethality and kainate degeneration)
Procedure: Table 3 summarizes the neuroprotective effect of such treatments.
Rats were treated as in Example 3. Table 4 summarizes the neuroprotective effect of such treatments.

[5] = system: rats with focal cerebral ischemia; conditions: cited from earlier work
[6] = system: rats with hemic hypoxia (sodium nitrite); assay: Hemic hypoxia in rats (sodium nitrite 80 mg/kg), oral treatment; format: in vivo, rat; conditions: 40 minutes before sodium nitrite
Procedure: Table 5 summarizes the anti-hypoxic and neuroprotective effects of such treatments.
Rats were treated as in Example 5. Table 6 summarizes the neuroprotective effect of such treatments.

[7] = cited from earlier work
[8] = system: rats with chronic kainate degeneration of the brain (AMPA/kainate receptors); assay: Chronic kainate degeneration in rats (kainic acid 12 mg/kg), oral treatment; format: in vivo, rat; conditions: for Chronic kainate lethality in rats, % per group: 2 weeks after kainate; for Rats with heavy neurological diseases (%): score 3 to 5 points; for ED50: Rattus norvegicus
Procedure: Rats were either orally administered with 80 mg/kg sodium nitrite to achieve hemic hypoxia, as explained In Example 1, or with 12 mg/kg Kainic acid to achieve chronic kainate degeneration of the brain by stimulation of AMPA/kainate receptors.

[9] = intravenous injection during the first 12 hours after stroke, cited from earlier work
[10] = Dose increasing the life of rats by 50%, read-out: Hemic hypoxia (ED50), mg/kg, I.M. admin.
[11] = text summary of Table 2, span over hemic and asphyctic hypoxia, read-out: ED50, anti-hypoxic effect
[12] = Dose 5 mg/kg (combination: memantine dose)
[13] = Dose 10 mg/kg (combination: memantine dose)

CNC[C@H](O)c1ccc(O)c(O)c1 [Epinephrine, epinephrine]
Asphyctic hypoxia, mice life duration (sec), I.P. admin. ([1]; Dose 0.01 mg/kg): 711 ± 79 s | Asphyctic hypoxia, mice life duration (sec), I.P. admin. ([1]; Dose 0.02 mg/kg): 750 ± 90 s | Asphyctic hypoxia, mice life duration (sec), I.P. admin. ([1]; Dose 0.1 mg/kg): 990 ± 123 s | Asphyctic hypoxia, mice life duration (sec), I.P. admin. ([1]; Dose 0.2 mg/kg): 1250 ± 155 ^1 sec | ED50 [1]: 0.12 ± 0.02 mg/kg | Acute NMDA lethality in mice (%), I.P. admin. ([2]; Dose 0.01 mg/kg): 100 ^ % | Acute NMDA lethality in mice (%), I.P. admin. ([2]; Dose 0.02 mg/kg): 100 ^ % | Acute NMDA lethality in mice (%), I.P. admin. ([2]; Dose 0.1 mg/kg): 30 ^1% | Acute NMDA lethality in mice (%), I.P. admin. ([2]; Dose 0.2 mg/kg): 10 ^2% | Hemic hypoxia, rat life duration (min), I.M. admin. ([3]; Dose 0.01 mg/kg): 63 ± 7 ^ min | Hemic hypoxia, rat life duration (min), I.M. admin. ([3]; Dose 0.02 mg/kg): 69 ± 8 ^ min | Hemic hypoxia, rat life duration (min), I.M. admin. ([3]; Dose 0.1 mg/kg): 113 ± 16 ^2 min | Hemic hypoxia, rat life duration (min), I.M. admin. ([3]; Dose 0.2 mg/kg): 122 ± 19 ^2 min | ED50 [3, 10]: 0.06 ± 0.01 mg/kg | ED50 [3, 11]: 0.06 to 0.12 mg/kg | Dose with significant anti-hypoxic effect [3]: ≥ 0.1 mg/kg | Chronic Kainate lethality in rats (%) ([4]; Dose 0.01 mg/kg): 90% | Rats with heavy neurologic disturbances (%) ([4]; Dose 0.01 mg/kg, 7-14 days after kainate): 100 ^ % | Rats with large weight loss (%) ([4]; Dose 0.01 mg/kg, underweight more than 30%, 7-14 days after kainate): 100 ^ % | Chronic Kainate lethality in rats (%) ([4]; Dose 0.02 mg/kg): 80% | Rats with heavy neurologic disturbances (%) ([4]; Dose 0.02 mg/kg, 7-14 days after kainate): 90 ^ % | Rats with large weight loss (%) ([4]; Dose 0.02 mg/kg, underweight more than 30%, 7-14 days after kainate): 80 ^ % | Chronic Kainate lethality in rats (%) ([4]; Dose 0.1 mg/kg): 20 ^1% | Rats with heavy neurologic disturbances (%) ([4]; Dose 0.1 mg/kg, 7-14 days after kainate): 30 ^1% | Rats with large weight loss (%) ([4]; Dose 0.1 mg/kg, underweight more than 30%, 7-14 days after kainate): 20 ^2% | Chronic Kainate lethality in rats (%) ([4]; Dose 0.2 mg/kg): 0 ^2% | Rats with heavy neurologic disturbances (%) ([4]; Dose 0.2 mg/kg, 7-14 days after kainate): 10 ^2% | Rats with large weight loss (%) ([4]; Dose 0.2 mg/kg, underweight more than 30%, 7-14 days after kainate): 0 ^2% | Dose with significant neuroprotective effect ([4]; combination: memantine dose): ≥ 0.1 mg/kg

CC12CC3CC(C)(C1)CC(N)(C3)C2 [Memantine, memantine]
Effect on brain injury and neurological disorders ([5]; prophylactic administration, 20 mg/kg): prevented injury of the brain and reduced neurological disorders | Asphyctic hypoxia, mice life duration (sec), I.P. admin. [1, 12]: 850 ± 80 s | Asphyctic hypoxia, mice life duration (sec), I.P. admin. [1, 13]: 936 ± 93 s | Asphyctic hypoxia, mice life duration (sec), I.P. admin. ([1]; Dose 20 mg/kg): 1070 ± 114 ^1 sec | ED50 [1]: 19.9 ± 2.8 mg/kg | Hemic hypoxia, life of rats (min), Oral admin. [6, 12]: 62 ± 7 min | Hemic hypoxia, life of rats (min), Oral admin. [6, 13]: 65 ± 9 min | Hemic hypoxia, life of rats (min), Oral admin. ([6]; Dose 20 mg/kg): 73 ± 11 min | Neurological and cognitive function of stroke patients ([7]; 20 mg for 6 months, subacute and recovery phase of stroke): significantly improved neurological and cognitive function | Side effects of prolonged use at a high dose ([7]; prolonged use, high dose): development of agitation, insomnia, irritability, and psychosis | Chronic kainate lethality in rats, % per group ([8]; Dose 5 mg/kg (combination: memantine dose), oral): 90% | Rats with heavy neurological diseases (%) ([8]; Dose 5 mg/kg (combination: memantine dose), oral, 7-14 days after kainate): 90% | Rats with large weight loss (%) ([8]; Dose 5 mg/kg (combination: memantine dose), oral, underweight more than 30%, 7-14 days after kainate): 90% | Chronic kainate lethality in rats, % per group ([8]; Dose 10 mg/kg (combination: memantine dose), oral): 80% | Rats with heavy neurological diseases (%) ([8]; Dose 10 mg/kg (combination: memantine dose), oral, 7-14 days after kainate): 80% | Rats with large weight loss (%) ([8]; Dose 10 mg/kg (combination: memantine dose), oral, underweight more than 30%, 7-14 days after kainate): 70% | Chronic kainate lethality in rats, % per group ([8]; Dose 20 mg/kg, oral): 60% ^3 | Rats with heavy neurological diseases (%) ([8]; Dose 20 mg/kg, oral, 7-14 days after kainate): 70% | Rats with large weight loss (%) ([8]; Dose 20 mg/kg, oral, underweight more than 30%, 7-14 days after kainate): 60% ^3 | ED50 ([8]; read-out: Dose decreasing the number of rats with large weight loss by 50% (ED50), mg/kg, Oral admin., underweight more than 30%, 7-14 days after kainate, combination: memantine dose): 18.8 ± 2.4 mg/kg | ED50 ([8]; text summary of Table 6, span over hemic hypoxia and kainate endpoints, oral, combination: memantine dose, read-out: ED50, anti-hypoxic and neuroprotective effects): 18 to 20 mg/kg | Dose with significant neuroprotective effects ([8]; text summary of Table 5, oral, combination: memantine dose): 20 mg/kg | Acute NMDA lethality in mice (%), I.P. admin. [2, 12]: 100 ^ % | Acute NMDA lethality in mice (%), I.P. admin. [2, 13]: 60 ^ % | Acute NMDA lethality in mice (%), I.P. admin. ([2]; Dose 20 mg/kg): 16 ^1% | Hemic hypoxia, rat life duration (min), I.M. admin. [3, 12]: 63 ± 5 ^ min | Hemic hypoxia, rat life duration (min), I.M. admin. [3, 13]: 77 ± 8 ^ min | Hemic hypoxia, rat life duration (min), I.M. admin. ([3]; Dose 20 mg/kg): 86 ± 9 ^1 min | ED50 [3, 10]: 18.2 ± 2.3 mg/kg | ED50 [3, 11]: 18 to 20 mg/kg | Dose with significant anti-hypoxic effect [3]: 20 mg/kg | Chronic Kainate lethality in rats (%) [4, 12]: 90% | Rats with heavy neurologic disturbances (%) ([4]; Dose 5 mg/kg (combination: memantine dose), 7-14 days after kainate): 90 ^ % | Rats with large weight loss (%) ([4]; Dose 5 mg/kg (combination: memantine dose), underweight more than 30%, 7-14 days after kainate): 90 ^ % | Chronic Kainate lethality in rats (%) [4, 13]: 70% | Rats with heavy neurologic disturbances (%) ([4]; Dose 10 mg/kg (combination: memantine dose), 7-14 days after kainate): 80 ^ % | Rats with large weight loss (%) ([4]; Dose 10 mg/kg (combination: memantine dose), underweight more than 30%, 7-14 days after kainate): 70 ^ % | Chronic Kainate lethality in rats (%) ([4]; Dose 20 mg/kg): 40 ^1% | Rats with heavy neurologic disturbances (%) ([4]; Dose 20 mg/kg, 7-14 days after kainate): 50 ^1% | Rats with large weight loss (%) ([4]; Dose 20 mg/kg, underweight more than 30%, 7-14 days after kainate): 40 ^1% | ED50 ([4]; Rattus norvegicus, im, read-out: Dose reducing the number of rats with a large deficit of weight by 50% (ED50), mg/kg, I.M. admin., underweight more than 30%, 7-14 days after kainate, combination: memantine dose): 17.6 ± 2.4 mg/kg | Dose with significant neuroprotective effect ([4]; combination: memantine dose): 20 mg/kg

CNC[C@H](O)c1cccc(O)c1 [Phenylephrine, phenylephrine]
Effect on infarction and neurological damage ([5]; intravenous administration before ligation of the middle cerebral artery): prevented infarction development and reduced neurological damage | Hemic hypoxia, life of rats (min), Oral admin. ([6]; Dose 0.02 mg/kg): 60 ± 7 min | Hemic hypoxia, life of rats (min), Oral admin. ([6]; Dose 0.05 mg/kg): 62 ± 9 min | Hemic hypoxia, life of rats (min), Oral admin. ([6]; Dose 0.1 mg/kg): 67 ± 10 min | Hemic hypoxia, life of rats (min), Oral admin. ([6]; Dose 0.5 mg/kg): 77 ± 12 min | Hemic hypoxia, life of rats (min), Oral admin. ([6]; Dose 1.0 mg/kg (combination: memantine dose)): 88 ± 14 ^1 min | Cerebral blood flow [9]: significant improvement in cerebral blood flow | Blood pressure after induced hypertension ([9]; from 100-110 mm): 160-170 mm
